Test results: patent US12679878B2, “CRF2 receptor agonists and their use in therapy” (SANOFI, priority 2020, dated 2026)
Like-named read-outs stand apart in the source and are kept apart here. Starred links: 1 amine or outer side, 2 acyl side, 3 side chain; linkers in the order of their positions; H or OH if unused. Non-standard residues stand in square brackets, D forms with d. Residues, ends and D or L forms follow the SMILES beside them. Groups on a side chain read outwards from the residue. *: point of attachment. C18 diacid = O=C(O)CCCCCCCCCCCCCCCCC(=O)*; γGlu = O=C(O)[C@H](CCC(=O)[*:2])N[*:1]; AEEA = NCCOCCOCC(=O)O; Aib = CC(C)(N)C(=O)O

How the values were obtained:
human CRF2α receptor = biological target: T1, human CRF2α receptor (Homo sapiens, UniProt Q13324); assay: cAMP agonism at human CRF2 α receptor in TeloHEAC cells (Example 7); assay type: cell-based; settings: cAMP HTRF, TeloHEAC cells stably expressing human CRF2 α
T1 construct: expressed in transfected cells; host or cells: TeloHEAC
T1 sequence (Q13324 1-411): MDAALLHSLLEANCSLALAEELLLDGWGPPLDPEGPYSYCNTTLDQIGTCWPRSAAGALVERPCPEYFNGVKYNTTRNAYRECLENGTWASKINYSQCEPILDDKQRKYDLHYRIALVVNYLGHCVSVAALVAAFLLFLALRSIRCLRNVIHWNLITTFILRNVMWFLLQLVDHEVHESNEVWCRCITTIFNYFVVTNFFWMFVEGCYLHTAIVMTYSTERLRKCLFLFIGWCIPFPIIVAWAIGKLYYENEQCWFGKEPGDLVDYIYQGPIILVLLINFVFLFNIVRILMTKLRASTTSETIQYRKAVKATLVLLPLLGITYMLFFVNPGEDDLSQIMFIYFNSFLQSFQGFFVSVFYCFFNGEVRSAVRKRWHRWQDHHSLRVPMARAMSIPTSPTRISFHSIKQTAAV
Outline: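 Percent activation was referenced to 1000 nM UCN2 (100%), and EC50 values taken as concentrations giving half of maximal response. The read-out was a homogeneous time-resolved fluorescence cAMP kit, fluorescence ratio 665/620 nm. Thawed cells (2000/well) saw compound for 30 min at RT in buffer with 2 mM IBMX and 0%/0.1% HSA.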

CRF1R receptor = biological target: T2, CRF1R receptor (Homo sapiens, UniProt P34998); assay: cAMP activity at anti-target CRF1R, CHO-K1 cell line clone 2 (Example 19.10); assay type: cell-based; settings: CRF1R CHO-K1 clone 2; for EC50: 0% HSA, read-out: EC50 [nM] 0% HSA; for Emax: 100% = Sauvagine at 100 nM
T2 construct: host or cells: CHO-K1 clone 2
T2 sequence (P34998 24-415): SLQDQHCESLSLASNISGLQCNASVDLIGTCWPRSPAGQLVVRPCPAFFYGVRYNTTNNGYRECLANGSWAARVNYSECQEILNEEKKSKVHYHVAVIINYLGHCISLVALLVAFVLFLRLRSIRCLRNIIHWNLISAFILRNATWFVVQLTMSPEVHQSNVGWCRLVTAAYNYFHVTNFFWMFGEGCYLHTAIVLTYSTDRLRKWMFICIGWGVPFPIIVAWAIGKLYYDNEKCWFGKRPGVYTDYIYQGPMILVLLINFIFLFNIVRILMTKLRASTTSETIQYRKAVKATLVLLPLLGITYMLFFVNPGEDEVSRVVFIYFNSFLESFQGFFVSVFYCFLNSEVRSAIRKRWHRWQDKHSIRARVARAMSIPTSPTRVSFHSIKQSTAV
Outline: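 A CRF1R-overexpressing CHO-K1 line (clone 2) was grown in F12/10% FBS/G418 and frozen in aliquots before use. The cAMP assay followed the preceding procedure, with 100% activation defined by Sauvagine at 100 nM.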

[1] = 0% HSA, read-out: EC50 [nM], 0% HSA

Compound | EC50 (human CRF2α receptor; [1]) [nM] | EC50 (CRF1R receptor) [nM] | Emax (CRF1R receptor) [%] | EC50 (human CRF2α receptor; 0.1% HSA, read-out: EC50 [nM], 0.1% HSA) [nM]
CC[C@H](C)[C@H](N)C(=O)N[C@H](C(=O)N[C@@H](CC(C)C)C(=O)N[C@@H](CO)C(=O)N[C@@H](CC(C)C)C(=O)N[C@@H](CC(=O)O)C(=O)N[C@H](C(=O)N1CCC[C@H]1C(=O)N[C@H](C(=O)N[C@@H](CCCCN)C(=O)N[C@@H](CC(C)C)C(=O)N[C@@H](CCCCNC(=O)COCCOCCNC(=O)COCCOCCNC(=O)CC[C@H](NC(=O)CCCCCCCCCCCCCCCCC(=O)O)C(=O)O)C(=O)N[C@@H](CCC(N)=O)C(=O)N[C@H](C(=O)N[C@@H](CC(C)C)C(=O)N[C@@H](CC(C)C)C(=O)N[C@@H](CCCCN)C(=O)N[C@@H](CCC(N)=O)C(=O)N[C@@H](CCC(=O)O)C(=O)N[C@@H](CCCNC(=N)N)C(=O)N[C@@H](CCC(N)=O)C(=O)N[C@@H](CCCCN)C(=O)NC(C)(C)C(=O)N[C@@H](CCC(N)=O)C(=O)N[C@@H](CCCNC(=N)N)C(=O)N[C@@H](CCC(=O)O)C(=O)N[C@@H](CCCCN)C(=O)N[C@@H](C)C(=O)N[C@@H](CCC(=O)O)C(=O)N[C@H](C(=O)N[C@@H](CC(N)=O)C(=O)N[C@@H](CCCCN)C(=O)N[C@@H](CCC(N)=O)C(=O)N[C@H](C(=O)N[C@@H](CC(C)C)C(=O)N[C@@H](C)C(=O)N[C@@H](CCC(N)=O)C(=O)N[C@H](C(N)=O)C(C)C)[C@@H](C)CC)[C@@H](C)O)[C@@H](C)CC)[C@@H](C)CC)C(C)C)C(C)C [compound 109] (H-IVLSLDVPIKLK([AEEA-AEEA-γGlu-C18 diacid])QILLKQERQK[Aib]QREKAETNKQILAQV-NH2) | 0.95 | > 100 | 1.1 | –
CC[C@H](C)[C@H](N)C(=O)N[C@H](C(=O)N[C@@H](CC(C)C)C(=O)N[C@@H](CO)C(=O)N[C@@H](CC(C)C)C(=O)N[C@@H](CC(=O)O)C(=O)N[C@H](C(=O)N1CCC[C@H]1C(=O)N[C@H](C(=O)N[C@@H](CCCCN)C(=O)N[C@@H](CC(C)C)C(=O)N[C@@H](CCCCNC(=O)COCCOCCNC(=O)COCCOCCNC(=O)CC[C@H](NC(=O)CCCCCCCCCCCCCCCCC(=O)O)C(=O)O)C(=O)N[C@@H](CCC(N)=O)C(=O)N[C@H](C(=O)N[C@@H](CC(C)C)C(=O)N[C@@H](CC(C)C)C(=O)N[C@@H](CCCCN)C(=O)N[C@@H](CCC(N)=O)C(=O)N[C@@H](CCC(=O)O)C(=O)N[C@@H](CCCNC(=N)N)C(=O)N[C@@H](CCC(N)=O)C(=O)N[C@@H](CCCCN)C(=O)NC(C)(C)C(=O)N[C@@H](CCC(N)=O)C(=O)N[C@@H](CCCNC(=N)N)C(=O)N[C@@H](CCC(N)=O)C(=O)N[C@@H](CCC(N)=O)C(=O)N[C@@H](C)C(=O)N[C@@H](CCC(=O)O)C(=O)N[C@H](C(=O)N[C@@H](CC(N)=O)C(=O)N[C@@H](CCCCN)C(=O)N[C@@H](CCC(N)=O)C(=O)N[C@H](C(=O)N[C@@H](CC(C)C)C(=O)N[C@@H](C)C(=O)N[C@@H](CCC(N)=O)C(=O)N[C@H](C(N)=O)C(C)C)[C@@H](C)CC)[C@@H](C)O)[C@@H](C)CC)[C@@H](C)CC)C(C)C)C(C)C [compound 110] (H-IVLSLDVPIKLK([AEEA-AEEA-γGlu-C18 diacid])QILLKQERQK[Aib]QRQQAETNKQILAQV-NH2; N-terminus assumed) | 0.18 | > 100 | 5.4 | –

Results, then the compound that gave them:

EC50 (human CRF2α receptor; [1]) [nM] | EC50 (CRF1R receptor) [nM] | Emax (CRF1R receptor) [%] | EC50 (human CRF2α receptor; 0.1% HSA, read-out: EC50 [nM], 0.1% HSA) [nM] | Compound
0.7 | > 100 | 0.8 | – | CC[C@H](C)[C@H](N)C(=O)N[C@H](C(=O)N[C@@H](CC(C)C)C(=O)N[C@@H](CO)C(=O)N[C@@H](CC(C)C)C(=O)N[C@@H](CC(=O)O)C(=O)N[C@H](C(=O)N1CCC[C@H]1C(=O)N[C@H](C(=O)N[C@@H](CCCCN)C(=O)N[C@@H](CC(C)C)C(=O)N[C@@H](CCCCNC(=O)COCCOCCNC(=O)COCCOCCNC(=O)CC[C@H](NC(=O)CCCCCCCCCCCCCCCCC(=O)O)C(=O)O)C(=O)N[C@@H](CCC(N)=O)C(=O)N[C@H](C(=O)N[C@@H](CC(C)C)C(=O)N[C@@H](CC(C)C)C(=O)N[C@@H](CCCCN)C(=O)N[C@@H](CCC(N)=O)C(=O)N[C@@H](CCC(=O)O)C(=O)N[C@@H](CCCNC(=N)N)C(=O)N[C@@H](CCC(N)=O)C(=O)N[C@@H](CCCCN)C(=O)NC(C)(C)C(=O)N[C@@H](CCC(N)=O)C(=O)N[C@@H](CCCNC(=N)N)C(=O)N[C@@H](CCC(=O)O)C(=O)N[C@@H](CCCCN)C(=O)N[C@@H](C)C(=O)N[C@@H](CCC(=O)O)C(=O)N[C@@H](CCCCN)C(=O)N[C@@H](CC(N)=O)C(=O)N[C@@H](CCCCN)C(=O)N[C@@H](CCC(N)=O)C(=O)N[C@H](C(=O)N[C@@H](CC(C)C)C(=O)N[C@@H](C)C(=O)N[C@@H](CCC(N)=O)C(=O)N[C@H](C(N)=O)C(C)C)[C@@H](C)CC)[C@@H](C)CC)[C@@H](C)CC)C(C)C)C(C)C [compound 116] (H-IVLSLDVPIKLK([AEEA-AEEA-γGlu-C18 diacid])QILLKQERQK[Aib]QREKAEKNKQILAQV-NH2; N-terminus assumed)
0.11 | > 100 | -6 | – | CC[C@H](C)[C@H](N)C(=O)N[C@H](C(=O)N[C@@H](CC(C)C)C(=O)N[C@@H](CO)C(=O)N[C@@H](CC(C)C)C(=O)N[C@@H](CC(=O)O)C(=O)N[C@H](C(=O)N1CCC[C@H]1C(=O)N[C@H](C(=O)N[C@@H](CCCCN)C(=O)N[C@@H](CC(C)C)C(=O)N[C@@H](CCCCNC(=O)COCCOCCNC(=O)COCCOCCNC(=O)CC[C@H](NC(=O)CCCCCCCCCCCCCCCCC(=O)O)C(=O)O)C(=O)N[C@@H](CCC(N)=O)C(=O)N[C@H](C(=O)N[C@@H](CC(C)C)C(=O)N[C@@H](CC(C)C)C(=O)N[C@@H](CCCCN)C(=O)N[C@@H](CCC(N)=O)C(=O)N[C@@H](CCC(=O)O)C(=O)N[C@@H](CCCNC(=N)N)C(=O)N[C@@H](CCC(N)=O)C(=O)N[C@@H](CCCCN)C(=O)NC(C)(C)C(=O)N[C@@H](CCC(N)=O)C(=O)N[C@@H](CCCNC(=N)N)C(=O)N[C@@H](CCC(N)=O)C(=O)N[C@@H](CCC(N)=O)C(=O)N[C@@H](C)C(=O)N[C@@H](CCC(=O)O)C(=O)N[C@@H](CCCCN)C(=O)N[C@@H](CC(N)=O)C(=O)N[C@@H](CCCCN)C(=O)N[C@@H](CCC(N)=O)C(=O)N[C@H](C(=O)N[C@@H](CC(C)C)C(=O)N[C@@H](C)C(=O)N[C@@H](CCC(N)=O)C(=O)N[C@H](C(N)=O)C(C)C)[C@@H](C)CC)[C@@H](C)CC)[C@@H](C)CC)C(C)C)C(C)C [compound 117] (H-IVLSLDVPIKLK([AEEA-AEEA-γGlu-C18 diacid])QILLKQERQK[Aib]QRQQAEKNKQILAQV-NH2)
0.04 | > 100 | 1.5 | 2.13 | CC[C@H](C)[C@H](N)C(=O)N[C@H](C(=O)N[C@@H](CC(C)C)C(=O)N[C@@H](CO)C(=O)N[C@@H](CC(C)C)C(=O)N[C@@H](CC(=O)O)C(=O)N[C@@H](C(=O)N1CCC[C@H]1C(=O)N[C@H](C(=O)N[C@@H](CCCCN)C(=O)N[C@@H](CC(C)C)C(=O)N[C@@H](CCCCNC(=O)COCCOCCNC(=O)COCCOCCNC(=O)CC[C@H](NC(=O)CCCCCCCCCCCCCCCCC(=O)O)C(=O)O)C(=O)N[C@@H](CCC(N)=O)C(=O)N[C@H](C(=O)N[C@@H](CC(C)C)C(=O)N[C@@H](CC(C)C)C(=O)N[C@@H](CCCCN)C(=O)N[C@@H](CCC(N)=O)C(=O)N[C@@H](CCC(=O)O)C(=O)N[C@@H](CCCNC(=N)N)C(=O)N[C@@H](CCC(N)=O)C(=O)N[C@@H](CCCCN)C(=O)NC(C)(C)C(=O)N[C@@H](CCC(N)=O)C(=O)N[C@@H](CCCNC(=N)N)C(=O)N[C@@H](CCC(N)=O)C(=O)N[C@@H](CCCCN)C(=O)N[C@@H](C)C(=O)N[C@@H](CCC(=O)O)C(=O)N[C@@H](CCCCN)C(=O)N[C@@H](CC(N)=O)C(=O)N[C@@H](CCCCN)C(=O)N[C@@H](CCC(N)=O)C(=O)N[C@H](C(=O)N[C@@H](CC(C)C)C(=O)N[C@@H](C)C(=O)N[C@@H](CCC(N)=O)C(=O)N[C@H](C(N)=O)C(C)C)[C@@H](C)CC)[C@@H](C)CC)[C@@H](C)CC)C(C)C)C(C)C [compound 118] (H-IVLSLD[dV]PIKLK([AEEA-AEEA-γGlu-C18 diacid])QILLKQERQK[Aib]QRQKAEKNKQILAQV-NH2; N-terminus assumed)
